# Source: patent US20230263822A1, “MODULATION OF FACTOR 11 EXPRESSION” (Ionis Pharmaceuticals, Inc., priority 2008, published 2023)
# Where “and” joins values, the source holds several entries; their conditions need not be identical. Identical values can stand only once. Strand notation (5' to 3'): a small letter for the sugar, then the base; units joined by * are phosphorothioate-linked, units joined directly phosphodiester-linked; [ ] holds rarer units or linkages, { } end groups; capitals alone tell only the bases. e = 2'-O-(2-methoxyethyl) (MOE); [5mC] = 5-methylcytosine; d = 2'-deoxy (DNA)
# Tests used:
# [1] = Viscosity of ISIS antisense oligonucleotides, micro-viscometer at 25 °C (Example 47); assay type: physicochemical; conditions: for Concentration: concentration of the viscosity sample, UV reading at 260 nM at 85° C.; for Viscosity: in water, micro-viscometer at 25° C., at the concentration of the same line
# Method in brief: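 Oligonucleotide (32-35 mg) was dissolved in 120 μL water by heating at 50° C, and viscosity was measured by micro-viscometer at 25° C. Concentration was checked by UV at 260 nm at 85° C on a dilution in water. Screening cut-off: >40 cP at 165-185 mg/mL.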
# [2] = Body and organ weights of cynomolgus monkeys (Example 46); assay type: in vivo; set-up: Liver weight / Spleen weight / Kidney weight: unit not given here
# Method: Groups, each consisting of two male and two female monkeys, were injected subcutaneously with 25 mg/kg of ISIS 416850, ISIS 449709, ISIS 445522, ISIS 449710, ISIS 449707, ISIS 449711, ISIS 449708, 416858, and ISIS 445531. Antisense oligonucleotide was administered to the monkeys at 25 mg/kg three times per week for week 1 and 25 mg/kg twice per week for weeks 2 to 8. A control group, consisting of two male and two female monkeys was injected subcutaneously with PBS according to the same dosing regimen. Body weights were taken 14 days and 7 days before the start of treatment and were then measured weekly throughout the treatment period. Blood samples were collected 14 days and 5 days before the start of treatment and subsequently several times during the dosing regimen for PT and aPTT measurements, and measurement of various hematologic factors. On day 55, the monkeys were euthanized by exsanguination while under deep anesthesia, and organs harvested for further analysis.
# Organ weights were taken after the animals were euthanized on day 55, and livers, kidneys and spleens were harvested.
Substance,Concentration [1],Viscosity [1],body weight ([2]; day 1) [g],body weight ([2]; day 8) [g],body weight ([2]; day 15) [g],body weight ([2]; day 22) [g],body weight ([2]; day 29) [g],body weight ([2]; day 36) [g],body weight ([2]; day 43) [g],body weight ([2]; day 50) [g],"Kidney weight ([2]; day 55, after euthanasia)","Liver weight ([2]; day 55, after euthanasia)","Spleen weight ([2]; day 55, after euthanasia)",body weight ([2]; day −7) [g],body weight ([2]; day −14) [g],"Spleen weight ([2]; cynomolgus monkeys, 25 mg/kg, day 55, compared to the PBS control)"
"412225 (antisense GCAGCGGACGGCATTGGTGC; 5-10-5 MOE gapmer, further chemistry not given here) [compound 412225]",162 mg/mL,>100 cP,–,–,–,–,–,–,–,–,–,–,–,–,–,–
"ISIS 449710: 3-8-3, 4-8-4, 2-10-2, 3-10-3 or 4-10-4 MOE microwalk gapmer (Table 46) (antisense e[5mC]*eA*e[5mC]*dA*dG*dT*dT*dT*d[5mC]*dT*dG*dG*d[5mC]*eA*eG*eG)",–,–,2131,2120,2145,2177,2149,2180,2227,2201,0.58,2.6,0.24,2114,2097,–
445531 (antisense eG*eG*e[5mC]*eA*eT*dT*dG*dG*dT*dG*d[5mC]*dA*d[5mC]*eA*eG*eT*eT*eT) [compound 445531],155 mg/mL and 179 mg/mL,15 cP and 20 cP,–,–,–,–,–,–,–,–,–,–,–,–,–,–
"ISIS 449709: 3-8-3, 4-8-4, 2-10-2, 3-10-3 or 4-10-4 MOE microwalk gapmer (Table 46) (antisense eG*e[5mC]*eA*e[5mC]*dA*dG*dT*dT*dT*d[5mC]*dT*dG*dG*d[5mC]*eA*eG*eG*e[5mC])",–,–,2112,2075,2085,2117,2068,2064,2106,2147,0.57,2.6,0.21,2093,2044,–
"412224 (antisense GCATTGGTGCACAGTTTCTG; 5-10-5 MOE gapmer, further chemistry not given here) [compound 412224]",186 mg/mL,98 cP,–,–,–,–,–,–,–,–,–,–,–,–,–,–
"ISIS 449711: 3-8-3, 4-8-4, 2-10-2, 3-10-3 or 4-10-4 MOE microwalk gapmer (Table 46) (antisense eA*e[5mC]*dA*dG*dT*dT*dT*d[5mC]*dT*dG*dG*d[5mC]*eA*eG)",–,–,2123,2123,2103,2171,2203,2227,2251,2227,0.54,2.6,0.32,2105,2049,caused increase in spleen weight
"ISIS 449707: 3-8-3, 4-8-4, 2-10-2, 3-10-3 or 4-10-4 MOE microwalk gapmer (Table 46) (antisense e[5mC]*eA*e[5mC]*eA*dG*dT*dT*dT*d[5mC]*dT*dG*dG*e[5mC]*eA*eG*eG)",–,–,2107,2088,2120,2142,2155,2158,2197,2185,0.53,2.5,0.24,2083,2072,–
"416856 (antisense GGCATTGGTGCACAGTTTCT; 5-10-5 gapmer, further chemistry not given here) [compound 416856]",175 mg/mL,18 cP,–,–,–,–,–,–,–,–,–,–,–,–,–,–
